One data set concerns adjuvant inflammation. Kind of data set: Effect of lowering local surface temperature at inflammation (adjuvant inflammation, butter bacillus, hind foot). The format is in vivo, male Fisher rat. The settings on record: Rattus norvegicus, 6 h, read-out: Dose (mg/kg) required for lowering local temperature at inflammatory site by at least 2° C. The method, then: 0.05 ml of a suspension of butter bacillus in liquid paraffin (10 mg/ml) was injected into the sole of the right hind foot of a male Fisher rat aged six weeks to thereby induce adjuvant inflammation. After three to five days, the surface temperature of the inflammatory foot was constantly higher by 8° to 10° C. than that of a normal foot. The test compounds as described hereinbelow and control compounds (i.e. indomethacin and pyroxycam) were each suspended in a 5% aqueous solution of gum arabic and orally administered to the rat in a dose of 5 ml/kg body weight. The local surface temperature of the inflammatory site was determined after two, four and six hours according to the method of H. Shirota et al. (cf. J. Pharmacol. Methods, 12, 35-43 (1984)). The dose required for lowering the surface temperature by at least 2° C. below that prior to the administration was calculated by averaging data of two animals, thus determining the anti-inflammatory titer of each test compound.

Data set [1] relates to carrageenan edema at foot-sole. Description: Effect of suppressing carrageenan edema at foot-sole. The format is in vivo, Male Fisher rats. The settings on record: 10 mg/kg, one hour before carrageenan; volume measured three hours after carrageenan injection; groups of five animals. The protocol:
Male Fisher rats aged five weeks were classified into groups each having five animals. Each test compound was suspended in a 5% aqueous solution of gum arabic and administered to each rat in a dose of […] body weight. After one hour, a 1% carrageenan solution was injected into the sole of the right hind foot of the animal to thereby induce inflammation. Three hours after the carrageenan injection, the volume of the sole of each hind foot of the animal was measured to calculate the volume-gain of the foot-sole to which carrageenan was injected. The obtained data was compared with those of the control groups, thus determining the suppression ratio of the test compound. The same test compounds as used in Pharmacological Example 1 were used.
(In general: The carrageenan paw model is a standard test of acute inflammation.)

Data set [2] can be described thus: Effect of inducing gastric ulcer. The format is in vivo, male Fisher rat. As to conditions: rat, oral, fasted 24 hours, after six hours, read-out: UD50 (50% ulcer inducing dose). The method, then: A male Fisher rat aged seven weeks was kept fasting for 24 hours and then each test compound suspended in a 5% aqueous solution of gum arabic was orally administered thereto.

The nature of data set [3]: Acute Toxicity Test, rats. The settings on record: rat, in vivo. The protocol: (§1) LD 50 of the compound B, falling within the scope of the invention, was investigated in respect to acute toxicity, using rats and mice.
(§2) *Values were calculated according to BehrensKarber method. The oral
(§3) administration was conducted after a fasting treatment for 17 to 24 hours

The next data set has as its system mice. Kind of data set: Acute Toxicity Test, mice. As to conditions: oral, male mice, after fasting 17 to 24 hours. The class given is in vivo. The protocol:
as §1, §2, §3

The nature of data set [4]: Acute Toxicity Test, mice. The class given is in vivo. As to conditions: mouse, in vivo. The protocol:
as §1, §2, §3

Setting [5] is: oral, suspended in 5% gum arabic, temperature after two, four and six hours, averaging data of two animals.

Molecules are shown by their SMILES. Read-outs that look alike come from different tables or passages of the source. Some results are limits rather than exact numbers.

As for `CC(C)(C)c1cc(C=C2CCNC2=O)cc(C(C)(C)C)c1O` [Compound C, 3-(3,5-di-tert-butyl-4-hydroxybenzylidene)-2-pyrrolidone], the minimal effective dose in the data set with adjuvant inflammation (setting [5]) was 0.3 mg/kg. In addition, the Suppression ratio in data set [1] came to 38.5. Further, in data set [2] (stomach), the TD50 at 6 h turned out to be 75.8 mg/kg.
As for `CN1CCC(=Cc2cc(C(C)(C)C)c(O)c(C(C)(C)C)c2)C1=O` [Compound A, N-methyl-3-(3,5-di-tert-butyl-4-hydroxybenzylidene)-2-pyrrolidone], the minimal effective dose in the data set with adjuvant inflammation (setting [5]) was 1 mg/kg. For the same molecule, in data set [1], the Suppression ratio was determined as 36.1.
For `COc1ccc2c(c1)c(CC(=O)O)c(C)n2C(=O)c1ccc(Cl)cc1` [Indomethacin, indomethacin, reference compound], the minimal effective dose in the data set on adjuvant inflammation (po) came out at 0.3 mg/kg. Moreover, in data set [1], the Suppression ratio amounted to 37.7. Also, in data set [2] (in vivo), the TD50 at 6 h was 7.8 mg/kg.
`CON1CCC(=Cc2cc(C(C)(C)C)c(O)c(C(C)(C)C)c2)C1=O` [Compound B, N-methoxy-3-(3,5-di-tert-butyl-4-hydroxybenzylidene)-2-pyrrolidone]: the minimal effective dose in the data set with adjuvant inflammation (po) was determined as 0.3 mg/kg. Further, the LD50 (as a rule, the dose expected to kill half of the subjects tested) in data set [3] (ip, abdominal, female rats, calculated according to Behrens-Karber method (*)) was 46.9 mg/kg; in data set [3] (ip, abdominal, male rats, calculated according to Behrens-Karber method (*)), 96.7 mg/kg; in data set [3] (po, female rats, after fasting 17 to 24 hours, calculated according to Behrens-Karber method (*)), 161 mg/kg; in data set [3] (po, male rats, after fasting 17 to 24 hours), 354 mg/kg; in data set [3] (sc, hypodermic, female rats, confidence range 124~476) it was 291 mg/kg; in data set [3] (sc, hypodermic, male rats, calculated according to Behrens-Karber method (*)), 806 mg/kg. Also, the LD50 is 4000~2000 with mice; 805 mg/kg in data set [4] (ip, abdominal, female mice, confidence range 443.9~1549.3); 1070 mg/kg in data set [4] (ip, abdominal, male mice, confidence range 523~2270); 6870 mg/kg in data set [4] (po, female mice, after fasting 17 to 24 hours); above 4000 mg/kg in data set [4] (sc, hypodermic, female mice); above 4000 mg/kg in data set [4] (sc, hypodermic, male mice). Further, the Suppression ratio in data set [1] is 36.4. Besides, the TD50 at 6 h in data set [2] (in vivo) came out at 473 mg/kg.
`CN1C(C(=O)Nc2ccccn2)=C(O)c2ccccc2S1(=O)=O` [Piroxicam, reference compound]: the minimal effective dose with adjuvant inflammation (setting [5]) was 0.3 mg/kg. For the same molecule, the TD50 at 6 h in data set [2] (in vivo) was found to be 23.1 mg/kg.

The record behind these values is patent US4833160A, “3-(3,5-di-tert-butyl-4-hydroxy benzylidene)-2-pyrrolidone and substituted derivatives thereof” (Eisai Co., Ltd., priority 1985, dated 1989).
